The source of these data is patent publication US20170319740A1, “Bioactive Wound Dressing and Teeth Coating Based on Morphogenetically Active Amorphous Calcium Polyphosphate” (NanotecMARIN GmbH, priority 2014, published 2017).

Test [1] has as its system fatty acid binding protein 4 (FABP4). Nature of the test: RT-qPCR steady-state gene expression in MC3T3-E1 cells: FABP4. The class given is cell-based, Mus musculus. As to conditions: 3 d, GAPDH reference. As to the method:
(§1) As indicated, the following polyP preparations are added to the cells; […], et al. […] Retinol is dissolved in ethanol (1 mg/ml) and then diluted in DMSO (dimethyl sulfoxide). Incubation is performed for 3 d. In the indicated experiments, circular fiber mat samples (diameter of 15 mm) are inserted into each 24-well of the plates and seeded with MC3T3-E1 cells at a density of 5·10^3 cells/well. Then the assays are incubated for 3 d and subjected to microscopic as well as polymerase chain reaction analyses. The gene expression levels can be determined by applying the technique of reverse transcription-quantitative real-time polymerase chain reaction (RT-qPCR). […] Then the cells are harvested, their RNA is isolated and subjected to RT-qPCR. In the experiments described under Examples, the following primer pairs, matching with the respective mouse genes, are used: Fatty acid binding protein 4 (Mus musculus; accession number […]299] (SEQ ID NO: 1) and Rev: […]392] (SEQ ID NO: 2); product size 135 bp; leptin (M. musculus; […]2911] (SEQ ID NO: 3) and Rev: […]3019] (SEQ ID NO: 4); size 153 bp; and leptin receptor, transcript variant 2 (M. musculus; […]2592] (SEQ ID NO: 5) and Rev: […]2686] (SEQ ID NO: 6); size 139 bp. The GAPDH [glyceraldehyde 3-phosphate dehydrogenase (Mus GAPDH; NM_008084) is used as reference gene […]220] (SEQ ID NO: 7) and Rev: [NT]338 to nt316; size 139 bp] (SEQ ID NO: 8).

In test [2] the test system is MC3T3-E1 cells. Nature of the test: XTT cell viability / cell proliferation assay. Type of test: cell-based, mouse. As for the experimental part:
(§2) The mouse calvaria cells MC3T3-E1 cells (ATCC-CRL-2593; #99072810; Sigma) are cultivated in a-MEM (Gibco—Invitrogen, Darmstadt; Germany) containing 20% fetal calf serum (FCS; Gibco). In addition, the medium is supplemented with 2 mM L-glutamine, 1 mM Na-pyruvate and 50 μg/ml of gentamycin. […] After reaching 80% confluency, the cells are detached using trypsin/EDTA and then subcultured at a density of 5·10^3 cells/ml. The cells are seeded at a density of 5·10^3 cells/well. Medium/serum change is every 3 d.
(§3) Retinol is dissolved in ethanol (1 mg/ml) and then diluted in DMSO (dimethyl sulfoxide). Incubation is performed for 3 d.
Cell proliferation/cell viability can be determined by the colorimetric XTT method ([Na-3′[1-(phenylamino-carbonyl)-3,4-tetrazolium]-bis(4-methoxy-6-nitro) benzene sulfonic acid] using, for example, the “Cell Proliferation Kit II” (Roche). The absorbance is determined at […] and subtracted from the background values ([…]). In the experiments described in Examples, the viable cells have been determined after 72 h.
A general note: Tetrazolium dyes change colour on reduction, which living cells bring about.

The subject of a further test is ALP gene. Nature of the test: qRT-PCR of ALP expression in hMSC differentiating towards odontoblasts. Type of test: cell-based, human. The note with it: 30 μg/mL, time not stated (1-7 d series), without polyP approximately 0.02. As to the method:
The human multipotent stromal cells (hMSC) differentiate into odontoblasts in the presence of conditioned medium from developing tooth germ cells; the conditioned medium is prepared as described (Huo N, et al. (2010) Differentiation of dermal multipotent cells into odontogenic lineage induced by embryonic and neonatal tooth germ cell-conditioned medium. Stem Cells Dev 19:93-104). The description of the cultivation procedure for the hMSCs has been published (Wang X H, et al. (2014) The marine sponge-derived inorganic polymers, biosilica and polyphosphate, as morphogenetically active matrices/scaffolds for differentiation of human multipotent stromal cells: Potential application in 3D printing and distraction osteogenesis. Marine Drugs 12:1131-1147). The human cells can be obtained, after approval from the responsible ethics committee, from bone marrow aspirations after informed consent of the donors. Incubation was performed in a humidified incubator at 37° C. and 5% CO2. The sixth passage is used for the studies. The cells are incubated in α-MEM (Biochrom), supplemented with 20% fetal calf serum (FCS; Gibco Invitrogen) as well as with 100 units/mL penicillin and […] streptomycin. In addition, 5% of conditioned medium is added to the assays. […]
In general terms: Real-time PCR tracks product formation cycle by cycle.

Test [3] relates to MC3T3-E1 cells. The test can be described thus: Nile Blue A staining of cell monolayers. The class given is cell-based, mouse. As to conditions: 72 h, controls stained in blue. As for the experimental part:
as §2, §3
The MC3T3-E1 cells are stained with Nile Blue A (Basic Blue 12, Nile blue sulfate; Sigma N0766) as described (Nakanishi T, Kato S. Impact of diabetes mellitus on myocardial lipid deposition: an autopsy study. Pathol Res Pract 2014; 210: 1018-1025). This staining reagent highlights in histological samples neutral lipids (triglycerides, cholesteryl esters, steroids) in pink, while acids (fatty acids, chromolipids, phospholipids) are stained in blue.

Another test concerns leptin receptor. Nature of the test: RT-qPCR steady-state gene expression in MC3T3-E1 cells: leptin receptor. Type of test: cell-based, Mus musculus. As to conditions: 3 d, GAPDH reference. As to the method: as §1
The next test concerns leptin. The test can be described thus: RT-qPCR steady-state gene expression in MC3T3-E1 cells: leptin. The class given is cell-based, Mus musculus. The note with it: 3 d, GAPDH reference. As to the method:
as §1

Test [4] is described as follows: In vitro incubation of teeth, polyP coating / dentinal tubule resealing (light microscopy, SEM). Set-up: species or system human. The note with it: 10 mg/mL; 2 d incubation. As to the method:
In order to determine the efficacy of the aCa-polyP-MP to reseal the dentin layer and to check for the potency of the microparticles to occlude the dentinal tubules human teeth are used. Prior to use the teeth are mechanically cleaned from soft tissue, treated for 5 h in 3% Na-hypochlorite to remove tissue remains and then stored at 4° C. in a 100% relative humidity chamber.
Teeth specimens are submersed in saline (0.90% [w/v] NaCl) which contained, as mentioned in the text, either 10 mg/mL of aCa-polyP-MP or Na-polyP, stoichiometrically complexed with Ca^2+ (molar ratio of 2:1/phosphate monomer:Ca^2 [Müller W E G, et al. (2011) Inorganic polymeric phosphate/polyphosphate as an inducer of alkaline phosphatase and a modulator of intracellular Ca^2+ level in osteoblasts (SaOS-2 cells) in vitro. Acta Biomater 7:2661-2671]). Incubation is performed at 25° C. Then the samples are sliced by cutting 1-2 mm thick discs inwards to the pulp as described (Wang X H, et al. (2014) Enzyme-based biosilica and biocalcite: biomaterials for the future in regenerative medicine. Trends Biotechnol 32:441-447); where indicated, the dentin or enamel regions, as well as the cement layer, are included in the measurements. […]

For Na-polyphosphate, the “FABP4 steady-state expression versus untreated control” value in test [1] (3 μg/ml, control set to 1) is recorded as “did not change significantly”. Also, the “number of cells (XTT)” value in the test on MC3T3-E1 cells [2] (72 h incubation, below a concentration of 3 μg/ml) is listed as “no effect on the number of cells”. Further, the “ALP expression level, ratio to GAPDH” value in the test on ALP gene came to 0.53±0.01. The “Nile Blue A staining colour of cells” value in the test on MC3T3-E1 cells [3] (3 μg/ml) is reported as “highlight in light/bright pink”. Moreover, the “leptin receptor steady-state expression versus untreated control” value in the test with leptin receptor (3 μg/ml, control set to 1) is reported as “did not change significantly”. Moreover, the “leptin steady-state expression versus untreated control” value in the test on leptin (3 μg/ml, control set to 1) is “did not change significantly”. In addition, in test [4], the “additional (polyP) layer on top of the cement, light microscopy” value is reported as “no additional layer was observed” and the “surface texture / roughness of treated teeth, light microscopy” value was “coarse texture”.

As for `CC1=C(/C=C/C(C)=C/C=C/C(C)=C/CO)C(C)(C)CCC1` [retinol, all-trans retinol], the “FABP4 steady-state expression versus untreated control” value in test [1] (3 μM retinol) is reported as “non-significant increase”. In addition, in the test on MC3T3-E1 cells [2] (retinol 3 μM as single component, 72 h), the “cell growth (XTT)” value was “does not affect cell growth significantly”. In addition, the “Nile Blue A staining colour of cells” value in the test with MC3T3-E1 cells [3] (3 μM retinol) is “highlight in light/bright pink”. The “leptin receptor steady-state expression versus untreated control” value in the test on leptin receptor (3 μM retinol) was “non-significant increase”. Besides, the “leptin steady-state expression versus untreated control” value with leptin (3 μM retinol) is listed as “non-significant increase”.
